Measured values: paper PMC2920039 (Bioorganic & medicinal chemistry, 2010)

Tests used:
CB2 receptor [1] = molecular target: CB2 receptor (Homo sapiens, UniProt P34972); assay type: binding
CB2 receptor [2] = details: cited from earlier work
CB2 receptor [3] = details: cited from earlier work; remark: listed apart in the source
[4] = cited from earlier work

CB2 receptor (Homo sapiens, UniProt P34972), sequence (P34972 whole entry): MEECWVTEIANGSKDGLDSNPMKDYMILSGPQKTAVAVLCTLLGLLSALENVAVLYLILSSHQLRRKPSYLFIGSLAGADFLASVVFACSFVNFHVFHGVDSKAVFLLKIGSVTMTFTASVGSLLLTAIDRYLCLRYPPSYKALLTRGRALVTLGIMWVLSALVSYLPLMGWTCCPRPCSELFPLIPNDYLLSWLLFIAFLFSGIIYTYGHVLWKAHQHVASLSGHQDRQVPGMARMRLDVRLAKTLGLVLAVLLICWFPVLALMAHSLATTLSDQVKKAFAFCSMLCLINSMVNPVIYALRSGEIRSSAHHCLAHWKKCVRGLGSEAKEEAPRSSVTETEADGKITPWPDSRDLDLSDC

In the case of `CCCCCCC(C)(C)c1ccc([C@H]2CCC[C@@H](O)C2)c(OC)c1` (relative stereo) [JWH-441, (1R*,3S*)3-[2-Methoxy-4-(1,1-dimethylheptyl)phenyl]cyclohexanol], the “CB1/CB2 (ratio of Ki)” value (CB2 receptor [1]) is reported as greater than 12.
In the case of `CCCCCCC(C)(C)c1cc(OC)c2c(c1)OC(C)(C)C1CC=C(C)CC21` (stereo not drawn) [1-methoxy-3-(dimethylheptyl)-•^8-THC], the “selectivity for the CB2 receptor” value (CB2 receptor [2]) is given as 12 fold and the Ki (CB2 receptor [2]; read-out: Ki CB2) is given as 57 nM.
In the case of `CCCC(C)(C)c1ccc2c(c1)OC(C)(C)[C@@H]1CC=C(C)C[C@@H]21` [JWH-133], the “agonism at the CB2 receptor” value (CB2 receptor [3]) is listed as “full agonist”, the “activity in the mouse model of cannabinoid activity” value [4] is listed as “inactive” and the “selectivity for the CB2 receptor” value (CB2 receptor [2]) is listed as 200 fold.
